According to patent US10022317B2, “Composition comprising an extract of herbal medicine processed by an oriental herbal medicine processing” (AMOREPACIFIC CORPORATION, priority 2013, dated 2018):

Tests used:
[1] = system: collagenase; assay: Collagenase expression inhibiting effect in human fibroblasts (collagenase kit, absorbance 405 nm); assay type: cell-based; details: 10^-4 M in serum-free DMEM, 24 hours, relative to non-treated group as 100
Method: The collagenase production inhibiting activity of the substances of Comparative Examples and Examples was compared with tocopherol and EGCG as control substances.
Human fibroblasts were seeded onto a 96-well plate holding Dulbecco's modified Eagle's medium (DMEM) comprising 2.5% fetal bovine serum, with 5,000 cells/well, and cultured until ˜90% confluency. The cells were further cultured in serum-free DMEM for 24 hours and treated with the mixture of oriental herbal medicine processed ginseng polysaccharide and green tea polysaccharide prepared in Comparative Examples 1-5 and Examples 1-6 at 10^−4 M in serum-free DMEM for 24 hours. Then the cell culture was collected.
The degree of collagenase production from the collected cell culture was measured using a commercially available collagenase kit (Amersham Pharmacia, USA). […]
Absorbance was measured at 405 nm using a spectrophotometer and the expression level of collagenase was calculated according to Equation 1. The expression level was calculated with respect to the non-treated control group. Expression level of collagenase (%)=[…]{(Absorbance of cells treated with substances of Comparative Example or Example÷Absorbance of control)×100} [Equation 1] […]

[2] = system: procollagen; assay: Procollagen production promoting effect in human fibroblasts (procollagen type-1 C-peptide EIA kit); assay type: cell-based; details: 10^-4 M in serum-free DMEM, 24 hours, relative to non-treated group as 100
Method: The procollagen production promoting activity of the substances of Comparative Examples and Examples was compared with that of vitamin C. Human fibroblasts were seeded onto a 96-well plate holding Dulbecco's modified Eagle's medium (DMEM) comprising 2.5% fetal bovine serum, with 5,000 cells/well, and cultured until ˜90% confluency. The cells were further cultured in serum-free DMEM for 24 hours and treated with the mixture of oriental herbal medicine processed ginseng polysaccharide and green tea polysaccharide prepared in Comparative Examples 1-5 and Examples 1-6 and vitamin C dissolved to 10^−4 M in serum-free DMEM for 24 hours. 24 hours later, the amount of free procollagen was measured using the procollagen type-1 C-peptide EIA kit (MK101, Takara, Japan). The level of procollagen production is given in Table 2 relative to the non-treated group as 100.

Row | Molecule | Expression level of collagenase (%) [1] [%] | Level of procollagen production (%) [2] [%]
1 | O=C(O[C@@H]1Cc2c(O)cc(O)cc2O[C@@H]1c1cc(O)c(O)c(O)c1)c1cc(O)c(O)c(O)c1 [EGCG] | 63 | 
2 | Tocopherol | 76 | 
3 | O=C1O[C@H]([C@@H](O)CO)C(O)=C1O [Vitamin C] |  | 121
